{"source": "patent US20250188457A1", "about": "“COMPOSITIONS AND METHODS FOR THE TREATMENT OF GLIOBLASTOMA BY INHIBITION OF THE TFPI2-CD51-STAT6 SIGNALING AXIS” (Northwestern University, priority 2023, published 2025)", "molecules": {"B1": {"name": "TFPI2 recombinant protein (tissue factor pathway inhibitor 2; BioVision, #7481-10) (ligand, UniProt P48307 23-235, looked up)", "chain": "DAAQEPTGNNAEICLLPLDYGPCRALLLRYYYDRYTQSCRQFLYGGCEGNANNFYTWEACDDACWRIEKVPKVCRLQVSVDDQCEGSTEKYFFNLSSMTCEKFFSGGCHRNRIENRFPDEATCMGFCAPKKIPSFCYSPKDEGLCSANVTRYYFNPRYRTCDAFTYTGCGGNDNNFVSREDCKRACAKALKKKKKMPKLRFASRIRKIRKKQF", "notes": "Bought recombinant protein added to microglia at 20 ng/ml; also called recombinant TFPI2; secreted TFPI2"}}, "key": {"005 GSC and CT2A tumors": {"system": "005 GSC and CT2A tumors", "assay": "Survival of C57BL/6 mice implanted with 005 GSCs or CT2A cells", "format": "in vivo, mouse", "conditions": "anti-PD1 10 mg/kg i.p. on days 11, 14 and 17, MK-0429 30 mg/kg or AS1517499 10 mg/kg i.p. every other day", "protocol": "Female C57BL/6 (#0000664), nude mice (#007850), and B6.12952(C)-Stat6tm1Gru/J mice (STAT6-KO; #005977) at 6 weeks of age were purchased from the Jackson Laboratory. Mice were grouped by 5 animals and maintained in a pathogen-free IVC System (San Diego, CA) for a week before the experiment. All animal experiments were performed with the approval of the Institutional Animal Care and Use Committee (IACUC) at Northwestern University. The intracranial xenograft tumor models were established (Refs. 11, 61; incorporated by reference in their entireties). Ketamine (100 mg/kg) and xylazine (20 mg/kg) were used for anesthetizing mice through intraperitoneal injection. Then a dental drill was used to open a small hole in the skull 1.2 mm anterior and 3.0 mm lateral to the bregma. A total volume of […] cells in FBS-free DMEM was injected into the right caudate nucleus 3 mm below the surface of the brain using a […] Hamilton syringe with an unbeveled 30-gauge needle. Total three doses of 20 mg/kg meloxicam were administrated before and after surgery through subcutaneous injection. After cancer cell implantation, mice were monitored for recording survival. Mice with neurological deficits or moribund appearance were sacrificed. Following the transcardiac perfusion with PBS and 4% paraformaldehyde (PFA), brains were removed and fixed in 4% PFA, and were processed for paraffin-embedded blocks or cryosectioning."}, "[1]": {"system": "mouse primary CD8+ T cells cocultured with SIM-A9 microglia", "assay": "Mouse microglia and CD8+ T cell co-culture, flow cytometry", "format": "cell-based", "conditions": "TFPI2 recombinant protein 20 ng/ml; AS1517499 25 nM", "protocol": "Primary mouse CD8^+ T cells were isolated from the spleens of C57BL/6 mice using a CD8^+ T cell isolation kit (Miltenyi Biotec, #130-104-075) according to manufacturer's instructions. Isolated CD8^+ T cells were cultured in RPMI 1640 media (Gibco, #22400-089) containing 10% FBS, 50 μM 2-Mercaptoethanol (Sigma, #M7522), and 1:100 antibiotic-antimycotic. Then, primary mouse CD8^+ T cells were expanded by 30 U/ml mouse IL-2 (Miltenyi Biotec, #130-120-662) and activated by Dynabeads® mouse T-activator CD3/CD28 (Gibco, #11456D) at bead-to-cell ratio of 1:1 before analysis and co-culture studies. For membrane protein staining, the single-cell suspensions were washed with PBS and then incubated with fixable viability dye (Invitrogen, #5211229035) on ice for 10 min. Following washing with PBS, cells were incubated with the anti-CD16/CD32 cocktail (BioLegend, #103132) in 2% BSA PBS to block Fc receptors for 30 min on ice. […] Samples were read in BD FACSymphony flow cytometer and analyzed in FlowJo v10.8.1. […] Then cell suspensions were rewashed in permeabilization buffer and read in BD FACSymphony flow cytometer."}, "[2]": {"system": "GSC262, GSC23 and GSC20 cells", "assay": "Immunoblot for CD133 and SOX2 in GSCs", "format": "cell-based, human", "conditions": "TFPI2 recombinant protein at indicated concentrations for 24 hrs", "protocol": "The protein expression in cells was determined by western blotting analysis (Ref. 61; incorporated by reference in its entirety). Cells were homogenized in RIPA lysis buffer containing phosphatase/protease cocktail inhibitors (Cell Signaling Technology, #5870). The protein concentration was determined by BCA Protein Assay Kit (Thermo Fisher Scientific, #P123225). Protein solution was mixed with the Leammli sample buffer and heated at 95° C. before loading to SurePAGE gels (GenScript, #M00653). The gels were run at a constant voltage of 80 V and then transferred to 0.2 μm nitrocellulose membrane (Bio-Rad, #1620112) using the Trans-Blot Turbo system (Bio-Rad) with a preprogrammed standard protocol for 30 min. Nitrocellulose membrane was incubated with 5% dry milk to block any unspecific staining. […]"}}, "data": [{"molecule": "NC(=O)c1cnc(NCCc2ccc(O)c(Cl)c2)nc1NCc1ccccc1", "note": "[AS1517499]", "values": [{"measurement": "survival of mice bearing 005 GSC and CT2A tumors, combination with anti-PD1 therapy", "setting": "005 GSC and CT2A tumors", "result": "synergized"}, {"measurement": "decrease of CD8+ T cell viability by TFPI2-polarized microglia", "setting": "[1]", "result": "negated"}, {"measurement": "reduction of the percentage of CD8+CD69+ and CD8+IFNγ+ T cells by TFPI2-treated microglia", "setting": "[1]", "result": "prevented"}]}, {"molecule": "B1", "values": [{"measurement": "expression of stemness-associated factors CD133 and SOX2", "setting": "[2]", "result": "increased"}]}]}
